Like-named read-outs stand apart in the source and are kept apart here. *1 amine or outer side, *2 acyl side, *3 side chain or, on linkers, in order; H or OH if unused. Where a SMILES comes first, the peptide text is derived from it. Bridges are numbered along the chain shown (N, C = ends). [ ]: non-standard residue; d: D form. The star is where a group is joined. hPhe(3-Cl-4-CF3) = N[C@@H](CCc1ccc(C(F)(F)F)c(Cl)c1)C(=O)O; X39 = O=C([C@H](Cc1ccc(C(F)(F)F)cc1)N(CC1CCC1)[*:1])[*:2]; NPrPhe(4-CF3) = CCCN[C@@H](Cc1ccc(C(F)(F)F)cc1)C(=O)O; NEtPhe(4-CF3) = CCN[C@@H](Cc1ccc(C(F)(F)F)cc1)C(=O)O; X50 = C=CCN([C@@H](Cc1ccc(C)cc1)C(=O)[*:2])[*:1]; X30 = CCN([C@H](C(=O)[*:2])C1CCCC1)[*:1]; Pip(4,4-F2) = O=C(O)[C@@H]1CC(F)(F)CCN1; NMeGly(cPent) = CN[C@H](C(=O)O)C1CCCC1; NMeD = CN[C@@H](CC(=O)O)C(=O)O; NMeL = CN[C@@H](CC(C)C)C(=O)O; Ac6c = NC1(C(=O)O)CCCCC1; Morpholide = C1CN(*)CCO1; NMeA = CN[C@@H](C)C(=O)O; Ac5c = NC1(C(=O)O)CCCC1; Aze = O=C(O)[C@@H]1CCN1; Sar = CNCC(=O)O
What was measured:
[1] = test system: human lung cancer strain NCI-H441; format: cell-based
How it was run: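 Signal came from […] measured per well once the reagent was added. Beforehand, cells were cultured at 37°C and 5% carbon dioxide on a compound series serially diluted in dimethyl sulfoxide.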

[2] = target: GDP-bound NRAS wild-type protein (Homo sapiens, UniProt P01111); test: Binding to NRAS by surface plasmon resonance (SPR), KD and KD ratio to KRAS
Chain of GDP-bound NRAS wild-type protein (P01111 whole entry): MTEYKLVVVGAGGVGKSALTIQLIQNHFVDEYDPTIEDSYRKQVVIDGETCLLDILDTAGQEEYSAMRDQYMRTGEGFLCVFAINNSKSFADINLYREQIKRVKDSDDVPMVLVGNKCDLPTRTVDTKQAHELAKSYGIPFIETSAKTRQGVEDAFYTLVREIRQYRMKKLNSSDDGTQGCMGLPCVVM
How it was run: (§1)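 Recombinant RAS proteins bearing a biotinylated Avi tag and loaded with GDP served as the captured ligand, recaptured fresh every cycle. Binding responses were referenced to an uncoated surface and a buffer-only blank cycle. Dissociation constants were obtained by 1:1 model fitting at 30°C.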

[3] = target: HRAS wild-type protein (Homo sapiens, UniProt P01112); test: Binding to HRAS by surface plasmon resonance (SPR), KD and KD ratio to KRAS
Chain of HRAS wild-type protein (P01112 whole entry): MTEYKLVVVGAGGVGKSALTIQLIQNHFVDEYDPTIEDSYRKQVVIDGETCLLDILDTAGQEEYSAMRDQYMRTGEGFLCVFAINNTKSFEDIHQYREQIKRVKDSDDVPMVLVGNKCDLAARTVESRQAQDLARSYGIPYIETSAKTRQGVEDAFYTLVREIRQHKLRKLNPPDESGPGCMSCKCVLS
How it was run: as §1

[4] = ratio of KD for GDP-bound NRAS wild-type protein to KD for KRAS
[5] = ratio of KD for HRAS wild-type protein to KD for KRAS
[6] = ratio of KD value for GDP-bound NRAS wild-type protein to KD value for KRAS (SPR)
[7] = ratio of KD value for HRAS wild-type protein to KD value for KRAS (SPR)

SMILES	IC50 [1] [nM]	NRAS /KRAS [2, 4]	HRAS /KRAS [3, 5]	other results
CCCN1C(=O)CN(C)C(=O)[C@@H]2CCN2C(=O)[C@H]([C@@H](C)CC)NC(=O)[C@H](CC(C)C)N(C)C(=O)C[C@@H](C(=O)N2CCOCC2)N(C)C(=O)[C@H](C2CCCC2)N(C)C(=O)C2(CCCC2)NC(=O)[C@@H]2CC(F)(F)CCN2C(=O)[C@H](CCc2ccc(C(F)(F)F)c(Cl)c2)NC(=O)CN(C)C(=O)[C@@H]1Cc1ccc(C(F)(F)F)cc1 [PP0312] ([NMeL]I[Aze][Sar][NPrPhe(4-CF3)][Sar][hPhe(3-Cl-4-CF3)][Pip(4,4-F2)][Ac5c][NMeGly(cPent)][NMeD]-Morpholide; lactam N-11)	82.4	B (a compound having 3 or more and less than 10 is denoted as B)	B (a compound having 3 or more and less than 10 is denoted as B)	
CCOC[C@H]1C(=O)N[C@@H]([C@@H](C)CC)C(=O)N(C)CC(=O)N(C)[C@H]2C/C=C\CCN(C2=O)[C@@H](Cc2ccc(C(C)=O)cc2)C(=O)N(C)CC(=O)N[C@@H](CCc2ccc(C(F)(F)F)c(OC)c2)C(=O)N2C[C@@H](C)C[C@H]2C(=O)NC2(CC(C)(C)C2)C(=O)N(C)[C@@H](C2CCCC2)C(=O)N(C)[C@H](C(=O)N(C)CC)CC(=O)N1C [PP2703]		AA (a compound having 20 or more is denoted as AA)	A (a compound having 10 or more and less than 20 is denoted as A)	IC50 ([1]; NCI-H441 cells, 4 days, CellTiter-Glo, read-out: NCl-H441 IC50): 80.5 nM
C=CCN1C(=O)CN(C)C(=O)CN(C)C(=O)[C@H]([C@@H](C)CC)NC(=O)[C@H](CC(C)C)N(C)C(=O)C[C@@H](C(=O)N2CCOCC2)N(C)C(=O)[C@H](C2CCCC2)N(C)C(=O)C2(CCCC2)NC(=O)[C@@H]2CCCN2C(=O)[C@H](CCc2ccc(C(F)(F)F)c(Cl)c2)NC(=O)CN(C)C(=O)[C@@H]1Cc1ccc(C)cc1 [PP0100] ([NMeL]I[Sar][Sar][X50][Sar][hPhe(3-Cl-4-CF3)]P[Ac5c][NMeGly(cPent)][NMeD]-Morpholide; lactam N-11)	24.3	B (a compound having 3 or more and less than 10 is denoted as B)	C (A compound having a KD ratio of 0.1 or more and less than 3 is denoted as C)	
CC[C@H](C)[C@@H]1NC(=O)[C@H](CC(C)C)N(C)C(=O)C[C@@H](C(=O)N2CCOCC2)N(C)C(=O)[C@H](C2CCCC2)N(C)C(=O)C2(CCCC2)NC(=O)[C@@H]2CCCN2C(=O)[C@H](CCc2ccc(C(F)(F)F)c(Cl)c2)NC(=O)CN(C)C(=O)[C@H](C2CCCC2)N(CC)C(=O)CN(C)C(=O)CN(C)C1=O [PP0024] ([NMeL]I[Sar][Sar][X30][Sar][hPhe(3-Cl-4-CF3)]P[Ac5c][NMeGly(cPent)][NMeD]-Morpholide; lactam N-11)	102	B (a compound having 3 or more and less than 10 is denoted as B)	C (A compound having a KD ratio of 0.1 or more and less than 3 is denoted as C)	
CC[C@H](C)[C@@H]1NC(=O)[C@H](CC(F)(F)F)N(C)C(=O)C[C@@H](C(=O)N(C)C)N(C)C(=O)[C@H](C2CCCC2)N(C)C(=O)C2(CC(C)(C)C2)NC(=O)[C@@H]2CCCN2C(=O)[C@H](CCc2cc(F)c(C(F)(F)F)c(F)c2)NC(=O)CN(C)C(=O)[C@H](Cc2ccc(C(F)(F)F)cc2)N2CC/C=C\C[C@@H](C2=O)N(C)C(=O)CN(C)C1=O [PP1722]	1.8			NRAS /KRAS [2, 6]: AA (a compound having 20 or more is denoted as AA); HRAS /KRAS [3, 7]: A (a compound having 10 or more and less than 20 is denoted as A)
CC[C@H](C)[C@@H]1NC(=O)[C@H](COC)N(C)C(=O)C[C@@H](C(=O)N2CCOCC2)N(C)C(=O)[C@H](C2CCCC2)N(C)C(=O)C2(CCC2)NC(=O)[C@@H]2C[C@@H](OCC(C)C)CN2C(=O)[C@H](CCc2cc(F)c(C(F)(F)F)c(F)c2)NC(=O)CN(C)C(=O)[C@H](Cc2ccc(C(F)(F)F)cc2)N2CCCCC[C@@H](C2=O)N(C)C(=O)CN(C)C1=O [PP0839]	122	B (a compound having 3 or more and less than 10 is denoted as B)	B (a compound having 3 or more and less than 10 is denoted as B)	
CCO[C@@H]1C[C@H]2C(=O)NC3(CCC3)C(=O)N(C)[C@@H](C3CCCC3)C(=O)N(C)[C@H](C(=O)N(CC)CC)CC(=O)N(C)[C@@H](CC)C(=O)N[C@@H]([C@@H](C)CC)C(=O)N(C)CC(=O)N(C)[C@H]3C/C=C\CCN(C3=O)[C@@H](Cc3ccc(C(F)(F)F)cc3)C(=O)N(C)CC(=O)N[C@@H](CCc3cc(F)c(C(F)(F)F)c(F)c3)C(=O)N2C1 [PP1305]	13			NRAS /KRAS ([2]; ratio of KD with respect to GDP-bound NRAS wild-type protein to KD with respect to KRAS): AA (a compound having 20 or more is denoted as AA); HRAS /KRAS ([3]; ratio of KD with respect to HRAS wild-type protein to KD with respect to KRAS): A (a compound having 10 or more and less than 20 is denoted as A)
CCC(CC)[C@H]1C(=O)N(C)[C@H](C(=O)N(C)C)CC(=O)N(C)[C@H]2CCC/C=C/c3ccc(cc3)C[C@@H](C(=O)N(C)CC(=O)N[C@@H](CCc3ccc(Cl)c(Cl)c3)C(=O)N3CCC[C@H]3C(=O)NC3(CC(C)(C)C3)C(=O)N1C)N1CC/C=C\C[C@@H](C1=O)N(C)C(=O)CN(C)C(=O)[C@H]([C@@H](C)CC)NC2=O [PP2603]	25.7	AA (a compound having 20 or more is denoted as AA)	A (a compound having 10 or more and less than 20 is denoted as A)	
CCO[C@@H]1C[C@H]2C(=O)NC3(CC(C)(C)C3)C(=O)N(C)[C@@H](C3CCCC3)C(=O)N(C)[C@H](C(=O)N(CC)CC)CC(=O)N(C)[C@@H](CC)C(=O)N[C@@H]([C@@H](C)CC)C(=O)N(C)CC(=O)N(C)[C@H]3C/C=C\CCN(C3=O)[C@@H](Cc3ccc(C)cc3)C(=O)N(C)CC(=O)N[C@@H](CCc3ccc(C(F)(F)F)c(OC)c3)C(=O)N2C1 [PP1881]	16.7			NRAS /KRAS [2, 6]: A (a compound having 10 or more and less than 20 is denoted as A); HRAS /KRAS [3, 7]: A (a compound having 10 or more and less than 20 is denoted as A)
CCC[C@H]1C(=O)N[C@@H]([C@@H](C)CC)C(=O)N(C)CC(=O)N(C)[C@H]2C/C=C\CCN(C2=O)[C@@H](Cc2ccc(C)cc2)C(=O)N(C)CC(=O)N[C@@H](CCc2ccc3sc(C)c(C)c3c2)C(=O)N2C[C@H](OCC)C[C@H]2C(=O)NC2(CC(C)(C)C2)C(=O)N(C)[C@@H](C(CC)CC)C(=O)N(C)[C@H](C(=O)N(C)C)CC(=O)N1C [PP2902]	56.3	AA (a compound having 20 or more is denoted as AA)	A (a compound having 10 or more and less than 20 is denoted as A)	
CCO[C@@H]1C[C@H]2C(=O)NC3(CCCC3)C(=O)N(C)[C@@H](C3CCCC3)C(=O)N(C)[C@H](C(=O)N(C)C)CC(=O)N(C)[C@@H](CC(C)C)C(=O)N[C@@H]([C@@H](C)CC)C(=O)N(C)CC(=O)N(C)[C@H]3C[C@@H](C)CCN(C3=O)[C@@H](Cc3ccc(C(F)(F)F)cc3)C(=O)N(C)CC(=O)N[C@@H](CCc3cc(F)c(C(F)(F)F)c(F)c3)C(=O)N2C1 [PP1017]	5	C (A compound having a KD ratio of 0.1 or more and less than 3 is denoted as C)	B (a compound having 3 or more and less than 10 is denoted as B)	
CC[C@H](C)[C@@H]1NC(=O)[C@H](CC(C)C)N(C)C(=O)C[C@@H](C(=O)N2CCOCC2)N(C)C(=O)[C@H](C2CCCC2)N(C)C(=O)C2(CCCC2)NC(=O)[C@@H]2CCCN2C(=O)[C@H](CCc2ccc(C(F)(F)F)c(Cl)c2)NC(=O)CN(C)C(=O)[C@H](Cc2ccc(C(F)(F)F)cc2)N(CC2CCC2)C(=O)CN(C)C(=O)CN(C)C1=O [PP0123] ([NMeL]I[Sar][Sar][X39][Sar][hPhe(3-Cl-4-CF3)]P[Ac5c][NMeGly(cPent)][NMeD]-Morpholide; lactam N-11)	12.5	B (a compound having 3 or more and less than 10 is denoted as B)	C (A compound having a KD ratio of 0.1 or more and less than 3 is denoted as C)	
CCCN(C)C(=O)[C@@H]1CC(=O)N(C)[C@@H](CC(F)F)C(=O)N[C@@H]([C@@H](C)CC)C(=O)N(C)CC(=O)N(C)[C@H]2C/C=C\CCN(C2=O)[C@@H](Cc2ccc(C(F)(F)F)cc2)C(=O)N(C)CC(=O)N[C@@H](CCc2cc(F)c(C(F)(F)F)c(F)c2)C(=O)N2C[C@@H](C)C[C@H]2C(=O)NC2(CCC2)C(=O)N(C)[C@@H](C2CCCC2)C(=O)N1C [PP2000]	17.7			NRAS /KRAS ([2]; ratio of the KD value with respect to GDP-bound NRAS wild-type protein to the KD value with respect to KRAS): A (a compound having 10 or more and less than 20 is denoted as A); HRAS /KRAS ([3]; ratio of the KD value with respect to HRAS wild-type protein to the KD value with respect to KRAS): B (a compound having 3 or more and less than 10 is denoted as B)
CC[C@H](C)[C@@H]1NC(=O)[C@H](CC(C)C)N(C)C(=O)C[C@@H](C(=O)N2CCOCC2)N(C)C(=O)[C@H](C2CCCC2)N(C)C(=O)C2(CCCCC2)NC(=O)[C@@H]2CCCN2C(=O)[C@H](CCc2ccc(C(F)(F)F)c(Cl)c2)NC(=O)CN(C)C(=O)[C@H](Cc2ccc(C(F)(F)F)cc2)N(CC)C(=O)[C@@H]2CCN2C(=O)[C@H](C)N(C)C1=O [PP0222] ([NMeL]I[NMeA][Aze][NEtPhe(4-CF3)][Sar][hPhe(3-Cl-4-CF3)]P[Ac6c][NMeGly(cPent)][NMeD]-Morpholide; lactam N-11)	17.1	C (A compound having a KD ratio of 0.1 or more and less than 3 is denoted as C)	C (A compound having a KD ratio of 0.1 or more and less than 3 is denoted as C)	

Source: patent EP4603105A1, “PHARMACEUTICAL COMPOSITION CONTAINING CYCLIC COMPOUND HAVING SELECTIVE KRAS INHIBITORY EFFECT AGAINST HRAS AND NRAS” (CHUGAI SEIYAKU KABUSHIKI KAISHA, priority 2022, dated 2024)
